For assay [1] the following is noted: background statement; cited from earlier work.
The next assay has as its system Daudi cells. Description: Binding of biotinylated peptide to cells (Streptavidin-PE). It is filed as cell-based, human. The settings on record: 50 microMolar. The procedure:
(§1) The ability of synthetic peptides to compete with binding of CLIP peptides and result in the cell surface expression of CD1d was determined.
(§2) Results: The results shown in FIG. 5 are expressed in histogram analyses. The Y axis represents cell number of the 5000 live cells versus the X axis which is a reflection of relative Fitc fluorescence versus Streptavidin-PE (eBioscience, Cat. #12-4317) that will bind with high affinity to cell-bound biotinylated peptides. The distance between the histogram from the isotype control staining versus the histogram reflecting the specific stain and is a measure of level of cell surface CD1d.
(§3) Cell Culture Conditions: The Raji and Daudi cell lines were purchased from American Type Culture Collection, were thawed, and grown in RPMI 1640 medium supplemented with standard supplements, including 10% fetal calf serum, gentamycin, penicillin, streptomycin, sodium pyruvate, HEPES buffer, 1-glutamine, and 2-ME.
(§4) Protocol: Cells were plated into a 12 well plate with 3 mls total volume containing approximately 1.5×10^6/well for Daudi cells and 3.0×10^6/well for Raji cells. Treatment groups included no treatment as control and biotinylated […] (SEQ ID NO: 2) (also referred to as MKN 5) at 50 microMolar final concentration based on the reported molarity of the synthesized compounds.
(§5) The cells were incubated at 37° C. in an atmosphere containing 5% CO2 and approximately 92% humidity. The cells were incubated for 4 and 24 hours. At each time point, the cells from that experimental time were harvested and stained for flow cytometric analysis of cell surface expression of CD1d by staining with PE anti-human CD1d (eBioscience, clone 51.5, cat. #12-00016-71).
(§6) Harvested cells were stained using standard staining procedure that called for a 1:100 dilution of PE anti-CD1d. Following staining on ice for 25 minutes, cells were washed with PBS/FCS and resuspended in 100 microliters and added to staining tubes containing 400 microliters of PBS. Samples were acquired and analyzed on a Coulter Excel Flow Cytometer.

A further assay deals with Raji cells. Described as above. The assay is classed as cell-based, human. The settings on record: 50 microMolar. The procedure: as §1, §2, §3, §4, §5, §6
The subject of assay [2] is cell surface CD1d on Daudi cells. Put plainly: Cell surface expression of CD1d. The note with it: 50 microMolar. It is filed as cell-based, human. The procedure: as §1, §2, §3, §4, §5, §6
The test system of assay [3] is cell surface CD1d on Raji cells. Description: Cell surface expression of CD1d. The assay is classed as cell-based, human. The note with it: 50 microMolar. The procedure: as §1, §2, §3, §4, §5, §6
The subject of assay [4] is cell surface CLIP on Daudi cells. Put plainly: Cell surface CLIP by flow cytometry. The settings on record: 24 and 48 hours. The assay is classed as cell-based, human. The procedure:
(§7) Kinetics of CLIP displacement from the surface of model B cells lines (Daudi and Raji) in response to thymic nuclear protein mixture was determined.
(§8) Results were expressed in histogram analyses (FIG. 3). The Y axis represents cell number of the 5000 live cells versus the X axis which is a reflection of relative Fitc fluorescence. The distance between the histogram from the isotype control staining versus the histogram reflecting the specific stain is a measure of level of cell surface CLIP on a population of live Raji or Daudi cells as indicated. […]
(§9) Harvested cells were stained using standard staining procedure that called for a 1:100 dilution of Fitc-anti-human CLIP or isotype control. […] Samples were acquired and analyzed on a Coulter Excel Flow Cytometer.
(§10) The ability of MKN1 (bioCLIP) to alter cell surface CLIP and CD74 levels was determined using Raji or Daudi cells.
(§11) Data were analyzed by histogram with Y axis represents cell number of the 5000 live cells versus the X axis which is a reflection of relative FITC fluorescence with either antibodies to CLIP or CD74. […]
(§12) Harvested cells were stained using standard staining procedure that called for a 1:100 dilution of Fitc-anti-human CLIP or CD74 antibody (Fitc, Pharmingen, Cat #554647) or isotype control. […] Samples were acquired and analyzed on a Coulter Excel Flow Cytometer. […]
Background: In flow cytometry, cells or beads pass a laser one at a time.

Assay [5] concerns cell surface CLIP on Raji cells. Description: Cell surface CLIP by flow cytometry. It is filed as cell-based, human. The note with it: 24 and 48 hours. The procedure: as §7, §8, §9, §10, §11, §12
Assay [6] concerns cell surface CD74 on Daudi cells. Description: Cell surface CD74 by flow cytometry. The assay is classed as cell-based, human. The settings on record: 24 and 48 hours. The procedure:
as §10
(§13) Data were analyzed by histogram with Y axis represents cell number of the 5000 live cells versus the X axis which is a reflection of relative FITC fluorescence with either antibodies to CLIP or CD74. The distance between the histogram from the isotype control staining versus the histogram reflecting the specific stain and is a measure of level of cell surface CLIP or CD74 when staining a population of live Raji or Daudi cells.
as §3
(§14) Protocol: Cells were plated into a 12 well plate with 3 mls total volume containing approximately 0.5×10^6/mL for Daudi cells and 0.5×10^6/mL for Raji cells. […]
(§15) Harvested cells were stained using standard staining procedure that called for a 1:100 dilution of Fitc-anti-human CLIP or CD74 antibody (Fitc, Pharmingen, Cat #554647) or isotype control. […] Samples were acquired and analyzed on a Coulter Excel Flow Cytometer.

In assay [7] the test system is cell surface CD74 on Raji cells. Description: Cell surface CD74 by flow cytometry. It is filed as cell-based, human. The note with it: 24 and 48 hours. The procedure: as §10, §13, §3, §14, §15

No end group written: not given here.

As for `C=CC[C@@H]1/C=C(\C)C[C@H](C)C[C@H](OC)[C@H]2O[C@@](O)(C(=O)C(=O)N3CCCC[C@H]3C(=O)O[C@H](/C(C)=C/[C@@H]3CC[C@@H](O)[C@H](OC)C3)[C@H](C)[C@@H](O)CC1=O)[C@H](C)C[C@@H]2OC` [FK506, tacrolimus], the “immunosuppressive activity relative to cyclosporin” value in assay [1] is reported as 10-100 times greater than cyclosporin.

With “Biotinylated FRIMAVLAS: biotinylated FRIMAVLAS (SEQ ID NO: 2), also referred to as MKN 5 (also: biotinylated, position not given here)”, the “binding of biotinylated peptide to cells” value in the assay with Daudi cells (4 hours) is “bound with high affinity”; in the assay on Daudi cells (24 hours), “Less binding”; in the assay on Raji cells (4 hours), “bound with high affinity”; in the assay with Raji cells (24 hours), “Less binding”. For the same molecule, the “cell surface expression of CD1d” value in [2] (4 hours) is listed as “marginally”; in assay [2] (24 hours), “slightly more”; in assay [3] (4 hours) it was “marginally”; in [3] (24 hours), “slightly more”.

For the molecule “SGG GSK MRM ATP LLM QAL Y [MKN1 (bioCLIP)]”, the “cell surface CLIP level” value in assay [4] and in assay [5] was “alters” each time. The “cell surface CD74 level” value in assay [6] and in assay [7] was “alters” throughout.
